Here are results for 1 compound from patent US11078495B2, “Methods and compositions for integration defective lentiviral vectors” (The University of North Carolina at Chapel Hill, priority 2015, dated 2021).

The test deals with human embryo fibroblasts (HEFs). In words: Normalized luciferase expression from IDLV (pTK993) in human embryo fibroblasts treated with Velcade and/or sodium butyrate. The note with it: sample i: HEFs, Velcade 25 nM for 24 hours at transduction, sodium butyrate 5 mM for 48 hours from day 19; harvested 21 days post transduction; normalized to protein content and VCN. The test is classed as cell-based. From the text:
FIG. 7: A short-term treatment of host cells with proteasome inhibitor (velcade) at the time of IDLV transduction results in long-term sensitivity of IDLV expression to HDAC inhibitor (sodium butyrate) treatment. A) Depiction of a conventional self-inactivating HIV-1 vector (pTK993) from which the firefly luciferase is expressed under the control of a CMV promoter. […] B) To characterize the short- and long-term effects of HDAC and proteasome inhibitors on IDLV gene expression, human embryo fibroblasts (HEFs) were transduced with IDLV carrying the firefly luciferase cDNA under the control of a CMV promoter. HEF transduction was carried out either in the absence (samples a, d, g and h) or in the presence of Velcade (25 nM) for 24 hours (samples b, e and i) or sodium butyrate (5 mM) for 48 hours (samples c and f). At day 19 post transduction, sample g was treated with Velcade (25 nM) for 24 hours, while samples h and i were treated with sodium butyrate (5 mM) for 48 hours. Cell samples were harvested at either 48 hours (samples a-c) or 21 days post-transduction and analyzed for luciferase expression, which was normalized to protein content and vector copy number per diploid cell genome (VCN). The readout of normalized luciferase expression is shown above each sample. […]

For `CC(C)C[C@H](NC(=O)[C@H](Cc1ccccc1)NC(=O)c1cnccn1)B(O)O` [Velcade], the “fold of increase in IDLV expression (normalized luciferase) relative to sample-control” value is listed as 75 fold.
